Data from ChEMBL document CHEMBL3774333, “Identification of SNAIL1 Peptide-Based Irreversible Lysine-Specific Demethylase 1-Selective Inactivators” (J Med Chem, 2016).
The source made the active and inactive calls. The rule behind the calls is not given here. *1 amine or outer side, *2 acyl side, *3 side chain or, on linkers, in order; H or OH if unused. Where a SMILES comes first, the peptide text is derived from it. [ ]: non-standard residue; d: D form. X2 = CNNCCC[C@H](N[*:1])C(=O)[*:2]

How the values were obtained:
[1] = test system: HeLa; assay: Antiproliferative activity against human HeLa cells assessed as reduction in cell viability at 100 uM treated for 24 hrs measured after 48 hrs by alamar blue assay in absence of fetal bovine serum; assay type: functional, cell-based
[2] = target: T1, Lysine-specific histone demethylase 1A (Homo sapiens, UniProt O60341); assay: Inhibition of LSD1 in human HeLa cells assessed as H3K4me2/H3 ratio at 20 uM after 24 hrs by Western blot analysis in absence of fetal bovine serum; assay type: cell-based
[3] = test system: HeLa; assay: Antiproliferative activity against human HeLa cells assessed as reduction in cell viability at 300 uM treated for 24 hrs measured after 48 hrs by alamar blue assay in absence of fetal bovine serum relative to control; assay type: functional
[4] = target: T1, Lysine-specific histone demethylase 1A; assay: biochemical
Description: Inhibition of full length N-terminal His-tagged human recombinant LSD1 (1 to 852 residues) expressed in Escherichia coli BL21(DE3) cells using H3K4me2 peptide as substrate preincubated for 5 mins followed by substrate addition measured for 30 mins by peroxidase coupled assay

[5] = target: Lysine-specific demethylase 5A (Homo sapiens, UniProt P29375)
Lysine-specific demethylase 5A, sequence (P29375 whole entry): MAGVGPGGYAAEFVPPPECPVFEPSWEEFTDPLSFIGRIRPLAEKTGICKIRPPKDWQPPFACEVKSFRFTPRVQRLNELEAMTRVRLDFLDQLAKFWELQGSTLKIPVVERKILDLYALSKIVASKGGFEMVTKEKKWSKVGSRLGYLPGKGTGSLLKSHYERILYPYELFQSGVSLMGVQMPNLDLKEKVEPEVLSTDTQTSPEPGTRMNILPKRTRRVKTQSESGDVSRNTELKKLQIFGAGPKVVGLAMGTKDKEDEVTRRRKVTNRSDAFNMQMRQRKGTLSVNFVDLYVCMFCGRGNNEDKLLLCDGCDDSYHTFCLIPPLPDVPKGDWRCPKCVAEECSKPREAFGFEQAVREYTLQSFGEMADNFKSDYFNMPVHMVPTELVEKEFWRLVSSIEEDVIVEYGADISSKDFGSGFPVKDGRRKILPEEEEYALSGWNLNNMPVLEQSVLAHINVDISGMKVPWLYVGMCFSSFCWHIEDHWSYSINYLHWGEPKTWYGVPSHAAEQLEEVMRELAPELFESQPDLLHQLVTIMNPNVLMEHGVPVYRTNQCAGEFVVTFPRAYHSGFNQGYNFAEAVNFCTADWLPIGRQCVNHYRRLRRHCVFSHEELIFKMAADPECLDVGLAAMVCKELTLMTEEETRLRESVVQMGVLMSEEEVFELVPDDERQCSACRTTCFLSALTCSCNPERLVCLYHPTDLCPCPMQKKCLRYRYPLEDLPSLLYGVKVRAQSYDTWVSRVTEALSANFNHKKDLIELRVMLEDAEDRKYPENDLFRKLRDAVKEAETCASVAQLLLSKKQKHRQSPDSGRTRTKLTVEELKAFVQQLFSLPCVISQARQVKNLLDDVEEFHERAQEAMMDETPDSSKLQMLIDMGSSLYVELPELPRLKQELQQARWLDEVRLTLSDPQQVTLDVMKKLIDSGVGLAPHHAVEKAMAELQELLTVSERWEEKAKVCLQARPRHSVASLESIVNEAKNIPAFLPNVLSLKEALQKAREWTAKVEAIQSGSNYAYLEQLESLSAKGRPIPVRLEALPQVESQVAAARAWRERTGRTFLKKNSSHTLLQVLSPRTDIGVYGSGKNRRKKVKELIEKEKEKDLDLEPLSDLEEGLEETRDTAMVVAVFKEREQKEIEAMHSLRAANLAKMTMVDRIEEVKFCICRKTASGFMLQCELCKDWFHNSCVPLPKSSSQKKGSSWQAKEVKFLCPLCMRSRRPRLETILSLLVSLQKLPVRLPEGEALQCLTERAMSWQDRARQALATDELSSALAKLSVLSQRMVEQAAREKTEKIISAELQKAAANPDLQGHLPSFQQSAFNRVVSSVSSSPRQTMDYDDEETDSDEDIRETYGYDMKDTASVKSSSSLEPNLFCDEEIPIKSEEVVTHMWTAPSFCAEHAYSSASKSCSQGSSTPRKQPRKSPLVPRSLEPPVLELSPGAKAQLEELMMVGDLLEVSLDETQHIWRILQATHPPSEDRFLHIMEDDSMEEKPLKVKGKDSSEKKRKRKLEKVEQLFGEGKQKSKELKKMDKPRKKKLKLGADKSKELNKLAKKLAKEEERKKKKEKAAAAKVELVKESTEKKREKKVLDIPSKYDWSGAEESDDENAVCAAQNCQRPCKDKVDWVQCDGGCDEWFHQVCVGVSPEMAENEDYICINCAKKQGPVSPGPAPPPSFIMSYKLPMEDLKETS
Description: Inhibition of JARID1A (unknown origin) using H3K4me3 peptide substrate preincubated for 5 mins followed by substrate addition by MALDI-TOF mass spectrometric analysis

[6] = target: T2, Lysine-specific histone demethylase 2 (Homo sapiens, UniProt Q8NB78); assay: biochemical
T2 sequence (Q8NB78 whole entry): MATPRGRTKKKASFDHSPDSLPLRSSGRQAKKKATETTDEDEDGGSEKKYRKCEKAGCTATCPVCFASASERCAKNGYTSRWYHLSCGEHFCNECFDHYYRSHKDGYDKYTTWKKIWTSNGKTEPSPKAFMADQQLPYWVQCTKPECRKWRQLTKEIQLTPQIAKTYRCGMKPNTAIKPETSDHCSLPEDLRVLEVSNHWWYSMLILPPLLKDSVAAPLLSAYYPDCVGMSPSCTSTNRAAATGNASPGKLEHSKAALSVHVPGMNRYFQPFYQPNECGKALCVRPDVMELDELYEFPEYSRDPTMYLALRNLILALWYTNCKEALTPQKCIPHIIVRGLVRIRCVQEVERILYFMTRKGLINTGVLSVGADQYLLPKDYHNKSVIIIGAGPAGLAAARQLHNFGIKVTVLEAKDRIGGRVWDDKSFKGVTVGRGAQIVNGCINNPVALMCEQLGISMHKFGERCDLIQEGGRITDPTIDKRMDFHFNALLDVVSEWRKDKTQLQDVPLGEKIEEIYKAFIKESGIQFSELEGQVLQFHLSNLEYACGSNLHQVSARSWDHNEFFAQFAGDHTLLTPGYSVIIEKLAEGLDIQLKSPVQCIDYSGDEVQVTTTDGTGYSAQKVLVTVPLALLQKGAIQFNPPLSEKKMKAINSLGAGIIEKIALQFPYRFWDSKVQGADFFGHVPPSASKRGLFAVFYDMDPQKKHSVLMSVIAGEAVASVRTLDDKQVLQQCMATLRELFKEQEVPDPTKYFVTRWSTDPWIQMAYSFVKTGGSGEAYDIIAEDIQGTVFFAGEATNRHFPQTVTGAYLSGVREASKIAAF
Description: Inhibition of full length N-terminal His-tagged human LSD2 (1 to 822 residues) expressed in Escherichia coli BL21(DE3) cells using H3K4me2 peptide substrate by MALDI-TOF mass spectrometric analysis

[7] = target: T3, Amine oxidase [flavin-containing] B (Homo sapiens, UniProt P27338); assay: biochemical
T3 sequence (P27338 whole entry): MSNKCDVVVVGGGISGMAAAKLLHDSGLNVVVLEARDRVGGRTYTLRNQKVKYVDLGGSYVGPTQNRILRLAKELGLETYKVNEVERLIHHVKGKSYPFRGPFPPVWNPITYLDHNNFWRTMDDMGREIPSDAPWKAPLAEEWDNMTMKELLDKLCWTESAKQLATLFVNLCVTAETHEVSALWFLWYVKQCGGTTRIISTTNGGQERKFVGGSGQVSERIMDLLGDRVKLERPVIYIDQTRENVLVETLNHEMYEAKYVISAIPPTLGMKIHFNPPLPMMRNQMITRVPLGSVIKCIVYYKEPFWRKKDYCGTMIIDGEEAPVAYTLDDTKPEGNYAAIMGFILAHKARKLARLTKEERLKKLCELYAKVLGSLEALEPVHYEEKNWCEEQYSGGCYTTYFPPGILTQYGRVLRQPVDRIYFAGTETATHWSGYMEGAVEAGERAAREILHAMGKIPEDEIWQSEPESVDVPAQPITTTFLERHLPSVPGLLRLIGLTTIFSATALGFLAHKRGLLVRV
Description: Inhibition of human recombinant MAO-B expressed in baculovirus infected BTI insect cells using (4S)-4,5-dihydro-2-(6-hydroxybenzothiazolyl)-4-thiazolecarboxylic acid as substrate incubated for 60 mins by MAO-Glo assay

[8] = target: T1, Lysine-specific histone demethylase 1A; assay: Drug metabolism assessed as LSD1 (unknown origin)-mediated demethylation of compound by measuring (3S,6S,9S,12S)-1-((S)-1-((S)-6-amino-2-((S)-2-((S)-4-amino-2-((S)-1-((S)-3-carboxy-2-((S)-2-((S)-1-((6S,9S,12S,15S,18S,21S,24S)-1,28-diamino-21-(3-guanidinopropyl)-12-(3-hydrazinylpropyl)-9-(hydroxymethyl)-1-imino-15-isobutyl-18-isopropyl-7,10,13,16,19,22-hexaoxo-6-((S)-pyrrolidine-2-carboxamido)-2,8,11,14,17,20,23-heptaazaoctacosanecarbonyl)pyrrolidine-2-carboxamido)-3-hydroxypropanamido)propanoyl)pyrrolidine-2-carboxamido)-4-oxobutanamido)-5-guanidinopentanamido)hexanoyl)pyrrolidin-2-yl)-3-(2-amino-2-oxoethyl)-12-carbamoyl-6-(4-hydroxybenzyl)-9-(hydroxymethyl)-1,4,7,10-tetraoxo-2,5,8,11-tetraazapentadecan-15-oic acid level after 22 hrs by MALDI-TOF mass spectrometric analysis; assay type: ADME
[9] = target: T4, Amine oxidase [flavin-containing] A (Homo sapiens, UniProt P21397); assay: biochemical
T4 sequence (P21397 whole entry): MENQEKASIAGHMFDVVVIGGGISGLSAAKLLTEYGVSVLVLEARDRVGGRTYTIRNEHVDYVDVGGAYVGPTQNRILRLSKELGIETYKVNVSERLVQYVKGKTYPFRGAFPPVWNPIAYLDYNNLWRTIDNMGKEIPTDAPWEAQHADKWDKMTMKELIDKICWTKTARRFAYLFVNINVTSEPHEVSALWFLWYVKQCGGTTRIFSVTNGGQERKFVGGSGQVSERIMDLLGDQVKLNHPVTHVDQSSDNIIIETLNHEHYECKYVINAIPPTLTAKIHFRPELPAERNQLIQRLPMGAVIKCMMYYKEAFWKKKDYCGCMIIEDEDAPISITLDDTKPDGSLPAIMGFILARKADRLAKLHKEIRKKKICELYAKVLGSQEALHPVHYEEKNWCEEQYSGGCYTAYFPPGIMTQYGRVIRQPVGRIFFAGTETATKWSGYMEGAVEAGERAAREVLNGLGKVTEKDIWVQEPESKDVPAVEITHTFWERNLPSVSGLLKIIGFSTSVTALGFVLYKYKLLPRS
Description: Inhibition of human recombinant MAO-A expressed in baculovirus infected BTI insect cells using (4S)-4,5-dihydro-2-(6-hydroxybenzothiazolyl)-4-thiazolecarboxylic acid as substrate incubated for 60 mins by MAO-Glo assay

[10] = target: T1, Lysine-specific histone demethylase 1A; assay: Drug metabolism assessed as LSD1 (unknown origin)-mediated compound-FAD adduct formation after 22 hrs by MALDI-TOF mass spectrometric analysis in presence of excess of H3K4me2 substrate peptide; assay type: ADME

Ratio [2]	IC50 [4] [µM]	IC50 [5] [µM]	IC50 [6] [µM]	IC50 [7] [µM]	Drug metabolism [8]	IC50 [9] [µM]	Drug metabolism [10]	Structure (SMILES)	Activity [1]	Activity [3] [%]
2.03	0.61	–	–	–	–	–	–	O=C(O)c1ccc(CN2CCC(CN[C@H]3C[C@@H]3c3ccccc3)CC2)cc1	inactive	9.96
–	8.4	> 50	> 50	> 30	metabolite_detected	> 30	–	CNNCCC[C@H](NC(=O)[C@H](CO)NC(=O)[C@H](CCCNC(=N)N)NC(=O)[C@@H]1CCCN1)C(=O)N[C@@H](CC(C)C)C(=O)N[C@H](C(=O)N[C@@H](CCCNC(=N)N)C(=O)N[C@@H](CCCCN)C(=O)N1CCC[C@H]1C(=O)N[C@@H](CO)C(=O)N[C@@H](CC(=O)O)C(=O)N1CCC[C@H]1C(=O)N[C@@H](CC(N)=O)C(=O)N[C@@H](CCCNC(=N)N)C(=O)N[C@@H](CCCCN)C(=O)N1CCC[C@H]1C(=O)N[C@@H](CC(N)=O)C(=O)N[C@@H](Cc1ccc(O)cc1)C(=O)N[C@@H](CO)C(=O)N[C@@H](CCC(N)=O)C(N)=O)C(C)C (H-PRS[X2]LVRKPSDPNRKPNYSQ-NH2)	–	–
–	0.44	> 50	> 50	> 30	–	> 30	metabolite_notdetected	CC(C)C[C@H](NC(=O)[C@H](CCCNN)NC(=O)[C@H](CO)NC(=O)[C@H](CCCNC(=N)N)NC(=O)[C@@H]1CCCN1)C(=O)N[C@H](C(=O)N[C@@H](CCCNC(=N)N)C(=O)N[C@@H](CCCCN)C(=O)N1CCC[C@H]1C(=O)N[C@@H](CO)C(=O)N[C@@H](CC(=O)O)C(=O)N1CCC[C@H]1C(=O)N[C@@H](CC(N)=O)C(=O)N[C@@H](CCCNC(=N)N)C(=O)N[C@@H](CCCCN)C(=O)N1CCC[C@H]1C(=O)N[C@@H](CC(N)=O)C(=O)N[C@@H](Cc1ccc(O)cc1)C(=O)N[C@@H](CO)C(=O)N[C@@H](CCC(N)=O)C(N)=O)C(C)C	–	–
